Laboratory results: PubChem BioAssay (NCI)
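The compound was tested at five concentrations on cells cultured in 96-well plates, with a 48-hour exposure period. At the GI50, growth is halved. TGI marks complete inhibition of growth.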

Key:
Assay in all cases: NCI-60 cell line screen, 48 h
[1] = test system: NCI-H23 lung
[2] = test system: NCI-H460 lung
[3] = test system: NCI-H522 lung
[4] = test system: NCI/ADR-RES ovarian
[5] = test system: OVCAR-3 ovarian
[6] = test system: OVCAR-4 ovarian
[7] = test system: OVCAR-5 ovarian
[8] = test system: OVCAR-8 ovarian
[9] = test system: PC-3 prostate
[10] = test system: RPMI-8226 leukemia
[11] = test system: RXF 393 renal
[12] = test system: SF-268 CNS
[13] = test system: SF-295 CNS
[14] = test system: SF-539 CNS
[15] = test system: SK-MEL-2 melanoma
[16] = test system: SK-MEL-28 melanoma
[17] = test system: SK-MEL-5 melanoma
[18] = test system: SK-OV-3 ovarian
[19] = test system: SN12C renal
[20] = test system: SNB-19 CNS
[21] = test system: SNB-75 CNS
[22] = test system: SR leukemia
[23] = test system: SW-620 colon
[24] = test system: T-47D breast
[25] = test system: TK-10 renal
[26] = test system: U251 CNS
[27] = test system: UACC-257 melanoma
[28] = test system: UACC-62 melanoma
[29] = test system: UO-31 renal

**Q.** What does the source list for `C=CCOC1=CC(=O)c2ccccc2C1=O`?
**A.** GI50 [1]: 1.76 µM; TGI [1]: 3.41 µM; GI50 [2]: 11.6 µM; TGI [2]: 31.1 µM; GI50 [3]: 2.05 µM; TGI [3]: 3.9 µM; GI50 [4]: 2.68 µM; TGI [4]: 7 µM; GI50 [5]: 2.51 µM; TGI [5]: 5.44 µM; GI50 [6]: 1.57 µM; TGI [6]: 2.95 µM; GI50 [7]: 2.38 µM; TGI [7]: 5.46 µM; GI50 [8]: 3.37 µM; TGI [8]: 12.9 µM; GI50 [9]: 4.29 µM; TGI [9]: 24.5 µM; GI50 [10]: 3.2 µM; GI50 [11]: 2.45 µM; TGI [11]: 6.03 µM; GI50 [12]: 4.21 µM; TGI [12]: 14.5 µM; GI50 [13]: 2.12 µM; TGI [13]: 4.75 µM; GI50 [14]: 2.37 µM; TGI [14]: 6.01 µM; GI50 [15]: 2.34 µM; TGI [15]: 4.46 µM; GI50 [16]: 2.38 µM; TGI [16]: 4.44 µM; GI50 [17]: 1.63 µM; TGI [17]: 3.01 µM; GI50 [18]: 3.59 µM; TGI [18]: 12.3 µM; GI50 [19]: 2.75 µM; TGI [19]: 6.45 µM; GI50 [20]: 12.9 µM; TGI [20]: 29.2 µM; GI50 [21]: 2.11 µM; TGI [21]: 4.08 µM; GI50 [22]: 2.24 µM; TGI [22]: 7.61 µM; GI50 [23]: 2.31 µM; TGI [23]: 4.84 µM; GI50 [24]: 2.52 µM; TGI [24]: 7.85 µM; GI50 [25]: 15.4 µM; TGI [25]: 28.9 µM; GI50 [26]: 2.71 µM; TGI [26]: 6.65 µM; GI50 [27]: 1.66 µM; TGI [27]: 3.72 µM; GI50 [28]: 2.01 µM; TGI [28]: 4.05 µM; GI50 [29]: 2.25 µM; TGI [29]: 7.4 µM
